Data set [1] is described as follows: Cytotoxicity against human HCT8 cells at 10 uM after 72 hrs by MTT assay. The data set is classed as cell-based. Conditions: hct-8, 72 h.
Data set [2] in a line: Cytotoxicity against human Bel7402 cells at 10 uM after 72 hrs by MTT assay. The data set is classed as cell-based. Conditions: bel-7402, 72 h.
Data set [3] in a line: Cytotoxicity against […] cells at 50 uM after 72 hrs by MTT assay. The data set is classed as cell-based. Conditions: bv-2, 72 h.
The subject of the next data set is RAW. As to the kind of experiment: Cytotoxicity against mouse RAW cells at 50 uM after 72 hrs by MTT assay. The data set is classed as cell-based. In general terms: Tetrazolium assays rely on reduction of a dye to a coloured formazan, in cell work by metabolically active cells.
Data set [4] can be described thus: Cytotoxicity against human BGC823 cells at 10 uM after 72 hrs by MTT assay. The data set is classed as cell-based. The note with it: bgc-823, 72 h.
Another data set concerns A2780. The data set is described as follows: Cytotoxicity against human A2780 cells at 10 uM after 72 hrs by MTT assay. The data set is classed as cell-based. Conditions: a2780, 72 h.
A further data set concerns BV-2. As to the kind of experiment: (§1) Antiinflammatory activity in […] cells assessed as inhibition of LPS-induced NO production measured 24 hrs post LPS-challenge by spectrophotometry. The data set is classed as functional, cell-based.
Data set [5] is described as follows: as §1. The data set is classed as functional, cell-based. Conditions: BV-2, 24 h.
The test system of a further data set is A549. As to the kind of experiment: Cytotoxicity against human A549 cells at 10 uM after 72 hrs by MTT assay. The data set is classed as cell-based. The note with it: a549, 72 h.

A word on the IC50: it is the point on the concentration scale where inhibition reaches its midpoint.

In the case of `CON1C(=O)[C@@]2(C[C@@H]3N=C([C@](C)(O)C[C@@H](C)[C@@]45ON4[C@H]4C[C@@]6(C(=O)N(OC)c7ccccc76)[C@H]6C[C@@H]5[C@@H]4CO6)[C@@H]4C[C@H]2OC[C@H]34)c2ccccc21` (some centres undefined), the Activity entry (in data set [1]; in [2]; in [3]; in the data set on RAW; in data set [4]; in the data set with A2780) was “Non-toxic” throughout. Moreover, the Activity result in the data set with A549 is reported as “Non-toxic”. The inhibition entry in the data set on BV-2 was “Dose-dependent effect”. For the same compound, the IC50 in data set [5] is 10.2 µM.

As for `CON1C(=O)[C@@]2(C[C@@H]3N=C([C@@](C)(O)C[C@@H](C)[C@@]45ON4[C@H]4C[C@@]6(C(=O)N(OC)c7ccccc76)[C@H]6C[C@@H]5[C@@H]4CO6)[C@@H]4C[C@H]2OC[C@H]34)c2ccccc21` (some centres undefined), the Activity entry (in [1]; in data set [2]; in data set [3]; with RAW; in data set [4]; in the data set on A2780) was “Non-toxic” throughout. The Activity entry in the data set on A549 was “Non-toxic”.

Regarding `C/C=C1\CN2C(=O)[C@]3(c4cc(-c5cc([C@@]67C[C@H]8[C@H]9CO[C@@H]6C[C@H]9/C(=C/C)CN8C7=O)c(N)cc5OC)c(OC)cc4N)C[C@H]2[C@H]2CO[C@@H]3C[C@@H]12`, the Activity entry (in data set [1]; in [2]; in data set [3]; in the data set on RAW; in [4]; in the data set on A2780) was “Non-toxic” each time. For the same compound, in the data set with A549, the Activity result is “Non-toxic”.

On to `COc1cc(/C=C/C(=O)CC(=O)/C=C/c2ccc(O)c(OC)c2)ccc1O` [CURCUMIN], for which, in data set [5], the IC50 was determined as 3.9 µM.
